Consider six compounds from patent publication US20160333073A1, “DRUG DELIVERY SYSTEM” (UCL BUSINESS PLC, priority 2014, published 2016).

Data set [1] in a line: Degradation by proteases in rabbit vitreous (mass spectrometry / UPLC-MS). As for the experimental part:
FIG. 10. […] UPLC-MS=ultra performance liquid chromatography-mass spectrometry.
FIG. 11. The effect of the protease inhibitors aprotinin (8 μM), bestatin (500 μM), E-64 (150 μM), and leupeptin (200 μM) on HABP35-F detection by UPLC-MS, after 6 hours incubation in rabbit vitreous. […] The experiment was performed three times (n=3). UPLC-MS=ultra performance liquid chromatography-mass spectrometry.
In order to assess degradation of HABP35-F by proteases present in rabbit vitreous, HABP35-F was incubated in rabbit vitreous for a period of 12 hours. Samples of HABP35-F in rabbit vitreous were taken at 0 and 12 hours and the mass spectrum traces for HABP35-F were compared.
In order to confirm that fragmentation occurred at the N-terminus (as opposed to the C-terminus), HABP35-B was incubated for 12 hours with rabbit vitreous.
In order to further confirm that HABP35-F was being enzymatically digested at the N-terminus, the proportion of HABP35-F that could be detected following incubation was assessed, with or without bestatin. Bestatin is an aminopeptidase inhibitor. Aminopeptidases catalyse the cleavage of amino acids from the N-terminus of peptides/proteins.
In order to optimise detection, further other protease inhibitors were added (aprotinin, bestatin, E-64, leupeptin).

On the set-up of data set [2]: species or system Sprague Dawley rats. The following applies: rat, in vivo. As for the experimental part:
FIG. 5. The retention of HABP35-F and RP2-F in rat vitreous after 48 hours. 2.5 μl of HABP35-F or RP2-F (250 nmole/ml) was injected into the vitreous of adult male Sprague Dawley rats. After 48 hours the eyes were removed. The cornea and lens was removed and the eye cup opened out into a Maltese cross. The vitreous and retina was photographed using an epifluorescent microscope (using equal exposure settings). A) Fluorescence of HABP35-F in the vitreous 48 hours following injection. B) Fluorescence of RP-F in the vitreous 48 hours following injection. C) Collage photograph showing fluorescence of HABP35-F in the vitreous 48 hours following injection.
FIG. 6. The in vivo diffusion study of HABP35-FP (higher line) and RP2-F (lower line) in rat vitreous over time. […] At different time points (0, 8, 24, 72, 168 hours) rats were sacrificed and the concentration of peptide in the vitreous was measured by fluorescence. […]
HABP-35-F was modified to protect the N-terminus from enzymatic degradation, through conversion of the terminal leucine to its D-configuration and by acetylation. […] The vitreous was extracted and peptide concentration measured by assessing fluorescence of the extracted vitreous. Three eyes were assessed, for each peptide, at each time point. In addition, the fluorescence of the vitreous was directly assessed on eye-cup flat mounts using an epifluorescent microscope.

Data set [3] is classed as binding. As for the experimental part: FIG. 1. Harvard Fast Micro-Equilibrium Dialyzer. Each dialyzer is made of polytetrafluoroethylene (PTFE) and contains a 250 μl chamber on either side of a 100 kDa molecular weight cut off (MWCO) cellulose acetate membrane. The chambers were incubated at room temperature for up to 8 hours, and the diffusion from one chamber to the other was assessed. The side in which the peptide is placed is termed the donating chamber. The other side, towards which the peptide diffuses, is termed the receiving chamber.
FIG. 4. The diffusion of HABP35-F (left-hand column in each case) and RP2-F (right-hand column in each case) in hyaluronic acid, using a Harvard Fast Micro-Equilibrium Dialyzer. […] Concentration of HABP35-F or RP2-F, in the donating and receiving chambers, was measured at the 8-hour time point (n=3). The concentration gradient was then determined (difference between the concentration of the donating and receiving chambers). […]
In order to assess whether the retention in the donating chamber was due to an interaction with hyaluronic acid (HA), a solution of 2.5 mg/ml HA (in HEPES buffered saline) was added to each chamber, instead of rabbit vitreous. 20 nmole/ml of HABP35-F or RP2-F was added to the donating chamber and diffusion was measured over 8 hours. […] As a control, diffusion in HEPES buffered saline (HBS) alone was also assessed. […]

Data set [4] in a line: HA binder screening ELISA on non-covalently bound HA. The class given is binding. The following applies: for specific binding to non-covalently bound HA (A450 HA wells minus blank wells): n=3, compared with RP-B. As for the experimental part: FIG. 7. […] Three ELISAs were performed for each concentration (n=3). Error bars represent standard deviation.
FIG. 8. […] Specific binding was obtained by subtracting A450 of blank wells from A450 of HA loaded wells, from the readings represented in FIG. 7. Three ELISAs were performed for each concentration (n=3). […] Error bars represent standard deviation.
Wells of a clear polystyrene Amine Surface 96 well ELISA plates (Corning Life Sciences Ltd) were loaded with 100 μl of 1 mg/ml HA sodium salt (Sigma-Aldrich Ltd) in 0.1 M 2-[N-morpholino] ethane sulfonic acid (MES, pH 4.5-5, Sigma-Aldrich Ltd). The wells were incubated for three hours at room temperature on an orbital shaker. All further incubations occurred at room temperature on an orbital shaker.
Wells were then washed three times with wash buffer (0.05% Tween 20 (Sigma-Aldrich Ltd) in phosphate buffered saline (PBS), pH 7.2-7.4). PBS was prepared to the following formula: 137 mM sodium chloride, 2.7 mM potassium chloride, 8.1 mM sodium phosphate dibasic, 1.5 mM potassium phosphate monobasic, pH 7.2-7.4, 0.22 μm filtered. 300 μl of 3% BSA (Sigma-Aldrich Ltd) in PBS was used to block each well. After 90 minutes incubation the wells were washed again three times. Different concentrations of biotinylated HA binding peptides, or control peptides, were then added, dissolved in 100 μl of 3% BSA PBS, and incubated for 1 hour. Three further washes were performed. 100 μl of streptavidin-horse radish peroxidase (S-HRP) (R&D Systems Ltd) (diluted to a working concentration of 1:200 in PBS) was added to each well, to detect any bound biotinylated peptide. The wells were incubated for 20 minutes, protected from light, followed by three further washes. 100 μl of tetramethylbenzidine (TMB)/H2O2, was added to each well. The wells were incubated for 10 minutes, protected from light. The reaction was stopped with 50 μl of 1 M H2SO4. Optical density of each well was read immediately, using a Modulus Microplate Reader set to 450 nm, One-way analysis of variance (ANOVA) was used to deter line statistical significance between groups (GraphPad Prism 5, GraphPad software Ltd).
In general terms: ELISA stands for enzyme-linked immunosorbent assay.

Data set [5] is classed as binding, rabbit. An excerpt:
The affinity of the peptide may be defined in terms of its binding affinity to hyaluronic acid and/or collagen, and assessed by way of its diffusion from one chamber of a micro-equilibrium dialyser containing vitreous matter (e.g. hyaluronic acid) to another chamber containing vitreous matter in the absence of such a binding peptide. Thus, the concentration of peptide remaining in the initial chamber over time provides a quantitative parameter for assessing the amount of peptide remaining in the vitreous, this parameter being innately governed by peptide binding properties to hyaluronic acid. A comparison with the binding properties of the peptide of SEQ ID No. 1 allows the relative affinity to the determined (for example, see FIG. 3).
FIG. 1. Harvard Fast Micro-Equilibrium Dialyzer. Each dialyzer is made of polytetrafluoroethylene (PTFE) and contains a 250 μl chamber on either side of a 100 kDa molecular weight cut off (MWCO) cellulose acetate membrane. The chambers were incubated at room temperature for up to 8 hours, and the diffusion from one chamber to the other was assessed. […]
In order to study the diffusion properties of HABP35-F in vitreous, Fast Micro-Equilibrium Dialyzers (250 μl chamber volume) were purchased from Harvard Apparatus Ltd (UK). […] The rate at which HABP35-F and RP2-F diffused from one side of the dialyzer to the other was assessed over time. […]

Where two headings read alike, the source gives them in different places. Square brackets hold non-standard residues; d marks the D form. Peptide text beside a SMILES is read from it. * marks the point of attachment. FITC = O=C1OC2(c3ccc(O)cc3Oc3cc(O)ccc32)c2ccc(NC(=S)*)cc21

As for `CC(C)C[C@H](NC(=O)[C@@H](O)[C@H](N)Cc1ccccc1)C(=O)O` [Bestatin, reference compound], the “amount of HABP35-F detectable by UPLC-MS” value in data set [1] (HABP35-F 10 nmole/ml, 6 hours incubation in rabbit vitreous, bestatin 250 μM) is listed as “significantly increased”.
For `CC[C@H](C)[C@H](NC(=O)[C@H](CCCCN)NC(=O)[C@H](CCC(N)=O)NC(=O)[C@H](CCCCN)NC(=O)[C@@H](CC(C)C)NC(C)=O)C(=O)N[C@@H](CCCCN)C(=O)N[C@@H](Cc1c[nH]cn1)C(=O)N[C@H](C(=O)N[C@H](C(=O)N[C@@H](CCCCN)C(=O)N[C@@H](CC(C)C)C(=O)N[C@@H](CCCCN)C(=O)N[C@H](C(=O)N[C@H](C(=O)N[C@H](C(=O)N[C@@H](CCCCN)C(=O)N[C@@H](CC(C)C)C(=O)N[C@@H](CCCNC(=N)N)C(=O)N[C@@H](CO)C(=O)N[C@@H](CCC(N)=O)C(=O)N[C@@H](CC(C)C)C(=O)N[C@H](C(=O)N[C@@H](CCCCN)C(=O)N[C@@H](CCCNC(=N)N)C(=O)N[C@@H](CCCCN)C(=O)N[C@@H](CCC(N)=O)C(=O)N[C@@H](CC(N)=O)C(=O)NCC(=O)NCC(=O)NCC(=O)N[C@@H](CO)C(=O)N[C@@H](CCCCNC(=S)Nc1ccc2c(c1)C(=O)OC21c2ccc(O)cc2Oc2cc(O)ccc21)C(N)=O)C(C)C)C(C)C)C(C)C)C(C)C)C(C)C)C(C)C` [HABP35-FP] (Ac-[dL]KQKIKHVVKLKVVVKLRSQLVKRKQNGGGSK(FITC)-NH2), the “fluorescence of peptide in the vitreous (epifluorescent microscopy)” value in data set [2] is listed as “increased retention”.
Regarding `CC[C@H](C)[C@H](NC(=O)[C@H](CCCCN)NC(=O)[C@H](CCC(N)=O)NC(=O)[C@H](CCCCN)NC(=O)[C@@H](N)CC(C)C)C(=O)N[C@@H](CCCCN)C(=O)N[C@@H](Cc1c[nH]cn1)C(=O)N[C@H](C(=O)N[C@H](C(=O)N[C@@H](CCCCN)C(=O)N[C@@H](CC(C)C)C(=O)N[C@@H](CCCCN)C(=O)N[C@H](C(=O)N[C@H](C(=O)N[C@H](C(=O)N[C@@H](CCCCN)C(=O)N[C@@H](CC(C)C)C(=O)N[C@@H](CCCNC(=N)N)C(=O)N[C@@H](CO)C(=O)N[C@@H](CCC(N)=O)C(=O)N[C@@H](CC(C)C)C(=O)N[C@H](C(=O)N[C@@H](CCCCN)C(=O)N[C@@H](CCCNC(=N)N)C(=O)N[C@@H](CCCCN)C(=O)N[C@@H](CCC(N)=O)C(=O)N[C@@H](CC(N)=O)C(=O)NCC(=O)NCC(=O)NCC(=O)N[C@@H](CO)C(=O)N[C@@H](CCCCNC(=S)Nc1ccc2c(c1)C(=O)OC21c2ccc(O)cc2Oc2cc(O)ccc21)C(N)=O)C(C)C)C(C)C)C(C)C)C(C)C)C(C)C)C(C)C` [HABP35-F] (H-LKQKIKHVVKLKVVVKLRSQLVKRKQNGGGSK(FITC)-NH2), the “degradation in rabbit vitreous (mass spectrum)” value in data set [1] was “this new molecule was HABP35-F minus the N-terminal leucine”. Besides, the “fluorescence of peptide in the vitreous (epifluorescent microscopy)” value in data set [2] is “visibly more fluorescent peptide”. For the same compound, the “total amount of peptide in both chambers (degradation) during diffusion study” value in data set [3] was “minimal degradation”.
In the case of “GAHWQFNALTVR-GGGS-K(Biotin)-amide [Pep1-B, reference compound]”, the “specific binding to non-covalently bound HA (A450 HA wells minus blank wells)” value in data set [4] is recorded as “significantly greater specific binding at all concentrations tested”.
On to “LKQKIKHVVKLKVVVKLRSQLVKRKQN-GGGS-K(Biotin)-amide [HABP35-B]”, for which, in data set [1] (incubation in rabbit vitreous, 12 hours vs 0 hours), the “degradation in rabbit vitreous (mass spectrum)” value is “a new ion also appeared, containing a comparable loss in MW to that seen with HABP35-F”. Besides, in data set [4], the “non-specific binding (blocked wells without HA)” value is listed as “high non-specific binding” and the “specific binding to non-covalently bound HA (A450 HA wells minus blank wells)” value is reported as “specific signal deteriorated at higher concentrations”. Besides, the “concentrations showing specific binding relative to HABP42-B or Pep1-B” value in data set [4] (non-covalently bound HA) is “ten-fold less”.
As to “SATPASAPYPLAGGGSSATPASAPYPLAGGGS-K(FITC)-amide [RP2-F, reference compound]”, the “peptide concentration in / retention in the donating chamber” value in data set [5] (rabbit vitreous, 20 nmole/ml peptide in donating chamber, 100 kDa MWCO membrane, 2, 4, 6 and 8 hours, fluorescence) is reported as “almost reaching equilibrium”. For the same compound, the “concentration gradient (concentration in donating chamber - concentration in receiving chamber)” value in data set [5] (rabbit vitreous, 2, 4, 6 and 8 hours) is recorded as “almost reached zero”.
